Results on 12 molecules are retold here after patent US8173376B2, “Method for identifying compounds for treatment of pain” (Universite Laval, priority 2003, dated 2012).

Data set [1] deals with lamina I neurons. Kind of data set: Anion reversal potential (Eanion) by gramicidin-D perforated-patch voltage-clamp recording in dorsal horn slices. It is filed as cell-based, rat.
Data set [2] deals with Sprague-Dawley rats. Kind of data set: Tactile/mechanical nociceptive withdrawal threshold (von Frey) after intrathecal delivery. The settings on record: for Nociceptive threshold for mechanical stimulation: intrathecal, 10 μg/day x 6 days. Type of data set: in vivo, rat.
For data set [3], the system named is lamina I (LI) neurons. Kind of data set: Calcium imaging (fura-2-AM) of GABA-evoked [Ca2+]i rise in lamina I neurons in spinal cord slices. It is filed as cell-based, rat.
The test system of data set [4] is GlyRs and GABAARs. Kind of data set: Whole-cell recording of miniature postsynaptic currents (mPSCs) and GABA-evoked responses in LI neurons. Type of data set: cell-based, rat. The settings on record: LI neuron, p>0.5.
The subject of data set [5] is Sprague-Dawley rats. Kind of data set: Thermal nociceptive withdrawal latency after intrathecal injection. It is filed as in vivo, rat. The settings on record: intact naïve rats, DIOA 15-30 μg intrathecal.
The subject of data set [6] is KCC2. Kind of data set: Immunoblot of spinal KCC2 protein after intrathecal oligodeoxynucleotide treatment. The settings on record: naïve rats, antisense 12 h or 36 h. It is filed as in vivo, rat. (In general: Immunoblotting shows a protein as a band on a membrane.)
For data set [7], the system named is voltage sensitive Ca2+ channels (VSCCs) and NMDA receptor/channels. The following applies: cited from earlier work; for Efficacy in the treatment of neuropathic pain: humans.
Data set [8] concerns Sprague-Dawley rats. The settings on record: intrathecal, at the doses used.
[9] abbreviates: lamina I neurons from naïve rats, 50 ng/ml in bath.

“Also recorded” adds a separate entry of the source.

As to KN-93, the “Change of Eanion” value in data set [1] (lamina I neurons from PNI rats, KN-93 5 μM in bath) is given as “significant hyperpolarization”.

Consider “human recombinant NGF: human recombinant NGF for intrathecal delivery”, for which, in data set [2] (naïve rats), the “Nociceptive threshold for mechanical stimulation” value is on record as “very similar decrease”.

For “NGF: nerve growth factor, activator of TrkA, bath applied”, the “Change of Eanion” value in data set [1] (setting [9]) is listed as “significantly depolarized; also recorded: significant depolarization”.

In the case of `O=S(=O)(NCCNC/C=C/c1ccc(Br)cc1)c1cccc2cnccc12` [H-89], the “Change of Eanion” value in data set [1] (lamina I neurons from PNI rats, H-89 15 in bath) is on record as “significant hyperpolarization”. The “Nociceptive threshold to mechanical stimulation” value in data set [2] (H-89 380 nmol local spinal delivery, vs vehicle) is reported as “increase”.

For `CCCCC1(C2CCCC2)Cc2cc(OCC(=O)O)c(Cl)c(Cl)c2C1=O` (stereo not shown) [DIOA], the “LI neurons showing an increase in [Ca2+]i on GABA application” value in data set [3] (naïve rat spinal slices, bath applied DIOA 30 μM) amounted to 30%. Also, in data set [3] (naïve rats, in the presence of DIOA, χ2 corrected=4.43), the “Proportion of LI neurons displaying a GABA-evoked increase in [Ca2+]i (in words)” value was “significantly higher”. Further, the “Effect on peak conductance of synaptic events (mPSCs)” value in data set [4] (CsCl pipette, Eanion clamped at 0 mV, n=4 neurons x 50 mPSCs) is listed as “neither affected”. Further, the “Effect on GABA-evoked responses” value in data set [4] (n=5) was “neither affected”. In addition, the “Nociceptive threshold to mechanical stimuli” value in data set [2] (intact naïve rats, DIOA 15-30 μg intrathecal) was “rapid and reversible decrease”. The “Nociceptive threshold to thermal stimuli (withdrawal latency)” value in data set [5] was “rapid and reversible decrease”.

On to “5′-TCTCCTTGGGATTGCCGTCA-3′ (DNA, all phosphorothioate, methylation of C not given here) [KCC2 antisense oligodeoxynucleotide]”, for which the “Tactile nociceptive withdrawal threshold” value in data set [2] (naïve rats, intrathecal antisense each 12 h (0 h, 12 h, 24 h), vs scrambled oligodeoxynucleotide) is listed as “significant decrease”. Moreover, the “Spinal KCC2 protein levels (immunoblots)” value in data set [6] is “Decrease”.

Take `NC1=N[C@H](O)[C@H]2[C@H]3O[C@]4(O)O[C@@H]([C@@H](O)[C@@]2(N1)[C@@H]4O)[C@]3(O)CO` [tetrodotoxin]: in data set [3], the “Block of GABA-evoked [Ca2+]i responses” value is recorded as “blocked”.

As to `NCC1(CC(=O)O)CCCCC1` [gabapentin], the “Efficacy in the treatment of neuropathic pain” value in data set [7] was “highly efficacious”.

With `COC(=O)[C@@]1(O)C[C@H]2O[C@]1(C)n1c3ccccc3c3c4c(c5c6ccccc6n2c5c31)C(=O)NC4` [K-252a], the “Change of Eanion” value in data set [1] (lamina I neurons from PNI rats, K-252a 200 nM in bath) is given as “hyperpolarization of the Eanion to a level similar to that observed in lamina I neurons taken from naïve rats; also recorded: significant hyperpolarization”. The “Threshold for tactile nociceptive withdrawal” value in data set [2] (PNI rats, K-252a 6 nM intrathecal, vs vehicle) is “increase”. Besides, the “Motor disturbances or sedation” value in data set [8] is reported as “did not produce any motor disturbances or sedation”.

Consider `CNC1(c2ccccc2Cl)CCCCC1=O` (stereo not shown) [ketamine], for which the “Efficacy in the treatment of neuropathic pain” value in data set [7] was “highly efficacious”. Further, the Side effects result in data set [7] (use of Ca2+ channel blockers / NMDA antagonists) is “many undesirable side effects”.

B1: BDNF: brain-derived neurotrophic factor, activator of TrkB, bath applied (protein, UniProt P23560 19-247, looked up)
Neurotrophic factor BDNF …: APMKEANIRGQGGLAYPGVRTHGTLESVNGPKAGSRGLTSLADTFEHVIEELLDEDQKVRPNEENNKDADLYTSRVMLSSQVPLEPPLLFLLEEYKNYLDAANMSMRVRRHSDPARRGELSVCDSISEWVTAADKKTAVDMSGGTVTVLEKVPVSKGQLKQYFYETKCNPMGYTKEGCRGIDKRHWNSQCRTTQSYVRALTMDSKKRIGWRFIRIDTSCVCTLTIKRGR
As to B1, the “Change of Eanion” value in data set [1] (setting [9]) is reported as “significantly depolarized; also recorded: significant depolarization”.

B2: human recombinant BDNF: human recombinant BDNF for local spinal delivery (protein, UniProt P23560 19-247, looked up)
Neurotrophic factor BDNF …: APMKEANIRGQGGLAYPGVRTHGTLESVNGPKAGSRGLTSLADTFEHVIEELLDEDQKVRPNEENNKDADLYTSRVMLSSQVPLEPPLLFLLEEYKNYLDAANMSMRVRRHSDPARRGELSVCDSISEWVTAADKKTAVDMSGGTVTVLEKVPVSKGQLKQYFYETKCNPMGYTKEGCRGIDKRHWNSQCRTTQSYVRALTMDSKKRIGWRFIRIDTSCVCTLTIKRGR
Consider B2, for which the “Nociceptive threshold for mechanical stimulation” value in data set [2] (naïve rats) is recorded as “significant decrease”.
